The values below come from patent US11312723B2, “Pyranopyrazole and pyrazolopyridine immunomodulators for treatment of autoimmune diseases” (The Rockefeller University, priority 2017, dated 2022).

Where only a bound is given, the exact number is not on record here.

The target in this experiment is Human FXIIa (Homo sapiens (Human), UniProt P00748). Put plainly: Factor XIIa (FXIIa) inhibitory activity, chromogenic substrate (Pefachrome XIIa) cleavage. As to conditions: 10 min pre-incubation, Pefachrome XIIa 400 μM. Type of experiment: biochemical. As for the experimental part:
Factor XIIa (FXIIa) Inhibitory Activity:
In a 96-well clear bottom plate, 80 μl of assay buffer was added to each well. Assay buffer consists of 0.5× Hank's Balanced Salt Solution (Invitrogen), buffered with 25 mM HEPES pH 7.4 (Invitrogen) and 0.5× Tris-buffered saline with Tween-20 0.05% (Santa Cruz Biotechnology). Test compounds were first dissolved in DMSO (Sigma) and then 4 μl were added to test wells containing assay buffer. Serial dilutions using an automated multi-channel pipette were used to generate a concentration range of approximately 1-100 μM. Human FXIIa (Enzyme Research Labs) was diluted in assay buffer to a final concentration of 12.5 nM. 80 μl of this enzyme solution was added to the assay wells. The enzyme/compound mixtures were incubated for 10 minutes at room temperature. Chromogenic substrate (Pefachrome XIIa; Enzyme Research Labs) was added to assay wells at a final concentration of 400 μM. The assay plate was spun for 1 minute at 1500 g and then read at 37° C. in a SpectraMax M2 plate reader (λ=405 nm). Activity was quantified as the rate of change in absorbance, which corresponds to the rate of substrate cleavage. IC50 values were determined as the concentration of inhibitor that produced 50% of the rate of change of control wells without any inhibitor. For compounds with activity <1 μM, the assay was repeated with a lower concentration range, typically from 10-1000 nM.

Human FXIIa, sequence (P00748 373-615): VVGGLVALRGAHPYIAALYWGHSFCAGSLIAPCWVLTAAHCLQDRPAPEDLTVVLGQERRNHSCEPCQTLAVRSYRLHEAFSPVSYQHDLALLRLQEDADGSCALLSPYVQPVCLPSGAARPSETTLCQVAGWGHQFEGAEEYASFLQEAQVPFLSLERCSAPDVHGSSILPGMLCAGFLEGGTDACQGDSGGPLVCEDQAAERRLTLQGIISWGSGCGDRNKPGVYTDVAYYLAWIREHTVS
Human FXIIa, sequence (P00748 20-372 partner): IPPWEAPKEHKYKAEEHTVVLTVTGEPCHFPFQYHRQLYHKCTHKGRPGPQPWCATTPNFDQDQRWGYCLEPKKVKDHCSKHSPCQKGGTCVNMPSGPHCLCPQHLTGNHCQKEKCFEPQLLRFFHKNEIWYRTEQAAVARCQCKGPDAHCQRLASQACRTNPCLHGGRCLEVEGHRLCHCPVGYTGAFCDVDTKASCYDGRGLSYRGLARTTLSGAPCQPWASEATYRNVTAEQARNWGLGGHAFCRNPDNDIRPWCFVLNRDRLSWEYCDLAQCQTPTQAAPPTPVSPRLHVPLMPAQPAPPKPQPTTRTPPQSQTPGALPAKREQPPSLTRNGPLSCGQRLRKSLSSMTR

Usually IC50 stands for the concentration that inhibits the measured activity by half. Consider `Cc1cccc2c1NCCC2C(=O)n1nc2c(c1N)CCN(S(C)(=O)=O)C2C` (single isomer, unassigned) [Example 78, (3-amino-7-methyl-6-(methylsulfonyl)-4,5,6,7-tetrahydropyrazolo[3,4-c]pyridin-2-yl)(8-methyl-1,2,3,4-tetrahydroquinolin-4-yl)methanone], for which the concentration for half-maximal inhibition (IC50) was more than 80 µM.

In turn, `Cc1cccc2c1NCCC2C(=O)n1nc2c(c1N)CCN(S(C)(=O)=O)C2C` (single isomer, unassigned) [Example 79, (3-amino-7-methyl-6-(methylsulfonyl)-4,5,6,7-tetrahydropyrazolo[3,4-c]pyridin-2-yl)(8-methyl-1,2,3,4-tetrahydroquinolin-4-yl)methanone] showed a half-inhibitory concentration (IC50) of 3 µM.

In the case of `Cc1cc(F)cc2c1NCC[C@@H]2C(=O)n1nc2c(c1N)CNCC2` (single isomer, unassigned) [Example 82, (S*)-(3-amino-4,5,6,7-tetrahydropyrazolo[4,3-c]pyridin-2-yl)(6-fluoro-8-methyl-1,2,3,4-tetrahydroquinolin-4-yl)methanone], the IC50 was determined as 0.07 µM.

As to `CS(=O)(=O)N1CCc2c(nn(C(=O)C3CCCc4[nH]c(Cl)cc43)c2N)C1` (single isomer, unassigned) [Example 132, (R*)-(3-amino-6-(methylsulfonyl)-4,5,6,7-tetrahydro-pyrazolo[3,4-c]pyridin-2-yl)(2-chloro-4,5,6,7-tetrahydro-1H-indol-4-yl)methanone], the IC50 is 3 µM.

Compound `CS(=O)(=O)N1CCc2c(nn(C(=O)[C@@H]3CCNc4ccccc43)c2N)C1` (single isomer, unassigned) [Example 134, (R*)-(3-amino-6-(methylsulfonyl)-4,5,6,7-tetrahydro-pyrazolo[3,4-c]pyridin-2-yl)(1,2,3,4-tetrahydro-quinolin-4-yl)methanone] returned an IC50 of 28 µM.

The compound `Nc1c2c(nn1C(=O)[C@@H]1CCNc3ccc(F)cc31)CNCC2` (single isomer, unassigned) [Example 147, (R*)-(3-amino-4,5,6,7-tetrahydro-pyrazolo[3,4-c]pyridin-2-yl)(6-fluoro-1,2,3,4-tetrahydro-quinolin-4-yl)methanone] had an IC50 of 10 µM.

As to `CCN1CCc2c(nn(C(=O)[C@@H]3CCNc4ccc(F)cc43)c2N)C1` (single isomer, unassigned) [Example 166, (R*)-(3-amino-6-ethyl-4,5,6,7-tetrahydro-pyrazolo[3,4-c]pyridin-2-yl)(6-fluoro-1,2,3,4-tetrahydro-quinolin-4-yl)methanone], 10 µM corresponded to half-maximal inhibition (IC50).

Compound `CCN1CCc2c(nn(C(=O)[C@@H]3CCNc4c(C)cc(F)cc43)c2N)C1` (single isomer, unassigned) [Example 171, (R*)-(3-amino-6-ethyl-4,5,6,7-tetrahydro-pyrazolo[3,4-c]pyridin-2-yl)(6-fluoro-8-methyl-1,2,3,4-tetrahydro-quinolin-4-yl)methanone] showed an IC50 of 4.5 µM.

Take `CCN1CCc2c(nn(C(=O)[C@@H]3CCNc4c(C)cccc43)c2N)C1` (single isomer, unassigned) [Example 174, (R*)-(3-amino-6-ethyl-4,5,6,7-tetrahydro-pyrazolo[3,4-c]pyridin-2-yl)(8-methyl-1,2,3,4-tetrahydro-quinolin-4-yl)methanone]: the IC50 turned out to be 8 µM.

Compound `Cc1cccc2c1NCC[C@H]2C(=O)n1nc2c(c1N)CCNC2` (single isomer, unassigned) [Example 177, (R*)-(3-amino-4,5,6,7-tetrahydro-pyrazolo[3,4-c]pyridin-2-yl)(8-methyl-1,2,3,4-tetrahydro-quinolin-4-yl)methanone] returned an IC50 of 30 µM.

`Cc1cccc2c1NCC[C@@H]2C(=O)n1nc2c(c1N)CCN(S(=O)(=O)N(C)C)C2` (single isomer, unassigned) [Example 180, (S*)-3-amino-N,N-dimethyl-2-(8-methyl-1,2,3,4-tetrahydro-quinoline-4-carbonyl)-4,5-dihydro-2H-pyrazolo[3,4-c]pyridine-6(7H)-sulfonamide] displayed a concentration for half-maximal inhibition (IC50) of 0.04 µM.

Compound `Cc1cccc2c1NCC[C@@H]2C(=O)n1nc2c(c1N)CCN(S(=O)(=O)C1CCC1)C2` (single isomer, unassigned) [Example 182, (S*)-(3-amino-6-(cyclobutyl-sulfonyl)-4,5,6,7-tetrahydro-pyrazolo[3,4-c]pyridin-2-yl)(8-methyl-1,2,3,4-tetrahydro-quinolin-4-yl)methanone] came in with a 50% inhibitory concentration (IC50) of 0.04 µM.

Turning to `Cc1cccc2c1NCC[C@H]2C(=O)n1nc2c(c1N)CCN(S(=O)(=O)C1CCC1)C2` (single isomer, unassigned) [Example 183, (R*)-(3-amino-6-(cyclobutyl-sulfonyl)-4,5,6,7-tetrahydro-pyrazolo[3,4-c]pyridin-2-yl)(8-methyl-1,2,3,4-tetrahydro-quinolin-4-yl)methanone], the IC50 stood at 35 µM.

Regarding `Cc1cccc2c1NCC[C@@H]2C(=O)n1nc2c(c1N)CCN(S(=O)(=O)C1COC1)C2` (single isomer, unassigned) [Example 185, (S*)-(3-amino-6-(oxetan-3-ylsulfonyl)-4,5,6,7-tetrahydro-pyrazolo[3,4-c]pyridin-2-yl)(8-methyl-1,2,3,4-tetrahydro-quinolin-4-yl)methanone], the concentration for half-maximal inhibition (IC50) was 0.2 µM.

As for `Cc1cccc2c1NCC[C@H]2C(=O)n1nc2c(c1N)CCN(S(=O)(=O)C1COC1)C2` (single isomer, unassigned) [Example 186, (R*)-(3-amino-6-(oxetan-3-ylsulfonyl)-4,5,6,7-tetrahydro-pyrazolo[3,4-c]pyridin-2-yl)(8-methyl-1,2,3,4-tetrahydro-quinolin-4-yl)methanone], half-maximal inhibition (IC50) was put at 40 µM.

`Cc1cccc2c1NCC[C@@H]2C(=O)n1nc2c(c1N)COCC2` (single isomer, unassigned) [Example 190, (S*)-(3-amino-6,7-dihydropyrano[4,3-c]pyrazol-2(4H)-yl)(8-methyl-1,2,3,4-tetrahydro-quinolin-4-yl)methanone] came in with an IC50 of 0.05 µM.

In turn, `Cc1cc(F)cc2c1NCC[C@H]2C(=O)n1nc2c(c1N)COCC2` (single isomer, unassigned) [Example 192, (R*)-(3-amino-6,7-dihydropyrano[4,3-c]pyrazol-2(4H)-yl)(6-fluoro-8-methyl-1,2,3,4-tetrahydro-quinolin-4-yl)methanone] yielded an IC50 of 12.5 µM.

On to `Cc1cc(F)cc2c1NCC[C@@H]2C(=O)n1nc2c(c1N)COCC2` (single isomer, unassigned) [Example 193, (S*)-(3-amino-6,7-dihydropyrano[4,3-c]pyrazol-2(4H)-yl)(6-fluoro-8-methyl-1,2,3,4-tetrahydro-quinolin-4-yl)methanone], for which the IC50 stood at 0.04 µM.

On to `Nc1c2c(nn1C(=O)[C@@H]1CCNc3ccc(F)cc31)COCC2` (single isomer, unassigned) [Example 197, (R*)-(3-amino-4,5-dihydropyrano[3,4-c]pyrazol-2(7H)-yl)(6-fluoro-1,2,3,4-tetrahydro-quinolin-4-yl)methanone], for which inhibition was half-maximal at 40 µM (IC50).

On to `Cc1cccc2c1NCC[C@H]2C(=O)n1nc2c(c1N)CCOC2` (single isomer, unassigned) [Example 199, (R*)-(3-amino-4,5-dihydropyrano[3,4-c]pyrazol-2(7H)-yl)(8-methyl-1,2,3,4-tetrahydro-quinolin-4-yl)methanone], for which the half-maximal inhibitory concentration (IC50) turned out to be 80 µM.

In the case of `Nc1c2c(nn1C(=O)[C@@H]1CCNc3c(Cl)cccc31)COCC2` (single isomer, unassigned) [Example 201, (R*)-(3-amino-4,5-dihydropyrano[3,4-c]pyrazol-2(7H)-yl)(8-chloro-1,2,3,4-tetrahydro-quinolin-4-yl)methanone], the 50% inhibitory concentration (IC50) was 16 µM.

In turn, `Nc1c2c(nn1C(=O)[C@H]1CCNc3c(Cl)cccc31)COCC2` (single isomer, unassigned) [Example 202, (S*)-(3-amino-4,5-dihydropyrano[3,4-c]pyrazol-2(7H)-yl)(8-chloro-1,2,3,4-tetrahydro-quinolin-4-yl)methanone] came in with an IC50 of 0.09 µM.

`Cc1cccc2c1NCC[C@@H]2C(=O)n1nc2c(c1N)CCN(CCO)C2` (single isomer, unassigned) [Example 204, (S*)-(3-amino-6-(2-hydroxyethyl)-4,5,6,7-tetrahydro-2H-pyrazolo[3,4-c]pyridin-2-yl)(8-methyl-1,2,3,4-tetrahydro-quinolin-4-yl)methanone]: the IC50 came out at 0.04 µM.

As for `Cc1cccc2c1NCC[C@H]2C(=O)n1nc2c(c1N)CCN(CCO)C2` (single isomer, unassigned) [Example 205, (R*)-(3-amino-6-(2-hydroxyethyl)-4,5,6,7-tetrahydro-2H-pyrazolo[3,4-c]pyridin-2-yl)(8-methyl-1,2,3,4-tetrahydro-quinolin-4-yl)methanone], the IC50 is more than 25 µM.

The compound `Cc1cc2c(C(=O)n3nc4c(c3N)CN(C(=O)OC(C)(C)C)CC4)cccc2[nH]1` [Example 1, tert-butyl 3-amino-2-[(2-methyl-1H-indol-4-yl)carbonyl]-4,5,6,7-tetrahydro-2H-pyrazolo[4,3-c]pyridin-5-carboxylate] gave an IC50 of 0.08 µM.

The compound `Cc1cc2c(C(=O)n3nc4c(c3N)CNCC4)cccc2[nH]1` [Example 2, (3-amino-4,5,6,7-tetrahydropyrazolo[4,3-c]pyridin-2-yl)(2-methyl-1H-indol-4-yl)methanone] registered an IC50 of 0.06 µM.
